Experimental data from patent US20180044343A1, “BICYCLIC IMIDAZOLO DERIVATIVE” (Sumitomo Dainippon Pharma Co., Ltd., priority 2015, published 2018).

Assays:
PDE1A3 [1] = molecular target: T1, PDE1A3 (Homo sapiens, UniProt P54750); assay: In vitro HTRF PDE1 inhibition assay (PDE1A3); assay type: biochemical; conditions: PDE1A3, 100 nM cyclic GMP
Text: (§1) An exemplary procedure for the in vitro Homogenous Time Resolved Fluorescence assay, which can be used to determine the inhibitory action of compounds of the present invention toward PDE1 or its isoforms, follows.
(§2) The HTRF PDE1 assay utilized the HTRF (Homogenous Time Resolved Fluorescence) technology, which is based on the competition between unlabeled cyclic nucleotide and cyclic nucleotide labeled with XL665 for the binding to cyclic nucleotide-specific antibody labeled with cryptate. The HTRF signal is thus inversely proportional to the concentration of cyclic nucleotide being measured. Since phosphodiesterases break down cyclic nucleotides, the HTRF signal was used to determine PDE activity.
(§3) The Cisbio cGMP HTRF assay kit (Cat no: 62GM2PEC) was utilized. Cyclic GMP was diluted to 200 nM in HTRF assay buffer (1 mM CaCl2, 10 mM MgCl2, 10 mM Tris-HCl, 0.1% BSA, pH 7.4). 10 μl of compound or DMSO was diluted in 200 nM cyclic GMP solution and added to wells of a 96 well white plate to give 100 nM cyclic GMP in 1% DMSO final concentration. PDE (1A3, 1B or 1C) was diluted to 2× working concentration in HTRF assay buffer with 2 μg/ml Calmodulin, and 10 μl was added to initiate the reaction. The plate was then incubated for 45 minutes at 27° C. d2-Labelled cyclic GMP and anti-cGMP cryptate were diluted in 50 mM phosphate buffer, 0.8 M KF, 1% Triton X100, 0.2% BSA, pH 7.0. Following incubation 10 μl d2-cGMP, then 10 μl anti cGMP cryptate were added to each well and the plate was incubated for 60 minutes at room temperature. The plate was then read on Perkin Elmer EnVision at 2 different FRET readings ex/em 340 nm/665 nm and 340 nm/615 nm.
(§4) Compounds having an IC50 of <1 μM are denoted as +++. Compounds having an IC50 of 1-10 μM are denoted as ++. Compounds having an IC50 of 10-100 μM are denoted as +.

PDE1C [2] = molecular target: T2, PDE1C (Homo sapiens, UniProt Q14123); assay: In vitro SPA PDE1 inhibition assay (PDE1C); assay type: biochemical; conditions: [3H]-cGMP 100 nM
Method: (§5) The commercially available Scintillation Proximity Assay (SPA) system (Perkinelmer) was used for PDE1 inhibition assays. SPA Yttrium Silicate beads preferentially binds to non-cyclic GMP compared to cyclic GMP (cGMP) in the presence of zinc sulphate, which enables to measure the amount of enzyme reaction product ([^3H]-GMP) by scintillation counting.
(§6) For PDE1 inhibition assay, 10 μl of the test compounds in 5% dimethyl sulfoxide diluted in SPA assay buffer (1 mM CaCl2, 10 mM MgSO4, 10 mM Tris-HCl, pH 7.4) were placed in a 96-well white microtiter plate, and 20 μl of [^3H]-cGMP solution (100 nM final concentration, Perkinelmer) in SPA assay buffer was added. Assays were initiated by adding 20 μl of PDE (1A3, 1B or 1C) enzyme solution including calmodulin (final concentration 1 μg/ml). After 30 min incubation at 27° C., the reaction was stopped by the addition of 50 μl of a suspension of 10 mg/ml SPA beads in 18 mM ZnSO4. The microtiter plates were settled for 60 min, and then were measured in a TopCount NXT scintillation counter (PerkinElmer). IC50 values were determined from sigmoidal curves by plotting the percentage of PDE activity versus log compound concentration. IC50 was defined as the concentration of the test compounds required to inhibit the cyclic nucleotide hydrolyzing activities of tested PDEs by 50%.

PDE1B [3] = molecular target: T3, PDE1B (Homo sapiens, UniProt Q01064); assay: In vitro HTRF PDE1 inhibition assay (PDE1B); assay type: biochemical; conditions: in vitro PDE1B HTRF Assay; read-out: IC50
T3 sequence (Q01064 whole entry): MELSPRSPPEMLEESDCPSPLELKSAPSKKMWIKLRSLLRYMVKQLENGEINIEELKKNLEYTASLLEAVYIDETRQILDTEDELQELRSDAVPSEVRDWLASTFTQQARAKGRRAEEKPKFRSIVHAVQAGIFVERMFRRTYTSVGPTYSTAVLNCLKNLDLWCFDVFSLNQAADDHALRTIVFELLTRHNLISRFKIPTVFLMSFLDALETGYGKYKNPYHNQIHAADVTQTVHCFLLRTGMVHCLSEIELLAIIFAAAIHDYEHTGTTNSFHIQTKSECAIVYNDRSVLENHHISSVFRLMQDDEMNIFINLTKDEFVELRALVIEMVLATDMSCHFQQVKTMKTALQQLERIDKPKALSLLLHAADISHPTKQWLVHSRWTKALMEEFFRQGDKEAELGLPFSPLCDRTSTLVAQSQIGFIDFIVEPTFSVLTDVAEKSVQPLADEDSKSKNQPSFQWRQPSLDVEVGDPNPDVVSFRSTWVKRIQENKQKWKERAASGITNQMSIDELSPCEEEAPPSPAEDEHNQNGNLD

PDE1A3 [4] = molecular target: T1, PDE1A3; assay: In vitro SPA PDE1 inhibition assay (PDE1A3); assay type: biochemical; conditions: PDE1A3, [3H]-cGMP 100 nM
Method: as §5, §6

PDE1C [5] = molecular target: T2, PDE1C; assay: In vitro HTRF PDE1 inhibition assay (PDE1C); assay type: biochemical; conditions: 100 nM cyclic GMP
Text: as §1, §2, §3, §4

PDE1B [6] = molecular target: T3, PDE1B; assay: In vitro SPA PDE1 inhibition assay (PDE1B); assay type: biochemical; conditions: [3H]-cGMP 100 nM
Method: as §5, §6

[7] = Test for drug transportation to brain in rats; assay type: in vivo; conditions: rat; SD rats, oral, one hour after administration; non-binding drug concentration ratio between brain and plasma
Text: Test for Drug Transportation to Brain in Rats
This test can be used to assess transportation of the compounds of the present invention to the brain. Each compound of the invention was orally administered to 7 week-old SD rats with a 0.5% suspension in methyl cellulose, and each plasma and brain were collected one hour after administration to measure the concentration of each compound in the plasma and the brain with an LC-MS.
Each protein binding ratio of the compounds in the plasma and the brain was measured by the equilibrium dialysis method.
The obtained concentrations and protein binding ratios of the compounds in the plasma and the brain can be applied to the following equation to calculate Kp, uu, brain (i.e., non-binding drug concentration ratio between brain and plasma).
Kp, uu, brain=[Compound concentration in brain×(100−Protein binding ratio in brain (%))/100]/[Compound concentration in plasma×(100−Protein binding ratio in plasma (%))/100]

[8] = Evaluation of bioavailability, PK test in rats; assay type: in vivo; conditions: rat; 7 week-old SD rats, intravenous vs oral administration, plasma LC-MS
Method: This test can be used to assess pharmacokinetics of the compounds of the present invention. Each compound of the invention was administered to 7 week-old SD rats intravenously with a solution in saline: 0.1N HCl=9:1 or orally with a 0.5% suspension in methyl cellulose, and each blood sample was collected at an appropriate interval as follows:
5, 15, and 30 minutes, and 1, 2, 4, 6, and 24 hours after intravenous administration
15 and 30 minutes, and 1, 2, 4, 6, and 24 hours after oral administration
The plasma was obtained from each blood, and the concentration of each compound in the plasma was measured with an LC-MS to calculate each pharmacokinetic parameter based on the concentration change.

Structure (SMILES)	IC50 (PDE1A3 [1]) [µM]	IC50 (PDE1C [2]) [µM]	IC50 (PDE1B [3]) [µM]	IC50 (PDE1A3 [4]) [µM]	IC50 (PDE1C [5]) [µM]	IC50 (PDE1B [6]) [µM]	Kp uu at 1 h [7]	bioavailability [8] [%]
CCn1c(OC[C@H]2CC[C@H](OC)CC2)nn2c(C3CCOCC3)ncc2c1=O [Example 91]	< 1	0.199	< 1	0.074	< 1	0.028		
COc1nn2c(C3CCOCC3)ncc2c(=O)n1C[C@H]1CC[C@@H](OC)CC1 [Example 101]	< 1	0.192	< 1	0.121	< 1	0.096		
COc1nn2c(C3CCOCC3)ncc2c(=O)n1Cc1ccc(Cl)cc1 [Example 109, 3-(4-chlorobenzyl)-2-methoxy-7-(tetrahydro-2H-pyran-4-yl)imidazo[5,1-f][1,2,4]triazin-4(3H)-one]	< 1	0.057	< 1	0.023	< 1	0.028	1.02	
Cn1c(OCc2ccc(F)cc2)nn2c(C3CCOCC3)nc(F)c2c1=O [Example 116, 5-Fluoro-2-[(4-fluorobenzyl)oxy]-3-methyl-7-(tetrahydro-2H-pyran-4-yl)imidazo[5,1-f][1,2,4]triazin-4(3H)-one]	< 1	0.771	< 1	0.207	< 1	0.084		
CNc1nn2c(C3CCOCC3)ncc2c(=O)n1Cc1ccccc1 [Example 200]	< 1	0.024	< 1	0.133	< 1	0.109		

The remaining lines, values ahead:

IC50 (PDE1A3 [1]) [µM]	IC50 (PDE1C [2]) [µM]	IC50 (PDE1B [3]) [µM]	IC50 (PDE1A3 [4]) [µM]	IC50 (PDE1C [5]) [µM]	IC50 (PDE1B [6]) [µM]	Kp uu at 1 h [7]	bioavailability [8] [%]	Structure (SMILES)
< 1	0.027	< 1	0.137	< 1	0.145			Cc1nn2c(C3CCOCC3)ncc2c(=O)n1Cc1ccccc1 [Example 238, 3-Benzyl-2-methyl-7-(tetrahydro-2H-pyran-4-yl)imidazo[5,1-f][1,2,4]triazin-4(3H)-one]
< 1	0.125	< 1	0.065	< 1	0.079			CCc1nn2c(C3CCOCC3)ncc2c(=O)n1CC1CCC(F)(F)CC1 [Example 239, 3-[(4,4-Difluorocyclohexyl)methyl]-2-ethyl-7-(tetrahydro-2H-pyran-4-yl)imidazo[5,1-f][1,2,4]triazin-4(3H)-one]
< 1	0.788	< 1	0.289	< 1	0.064	0.26	51.6	CCO[C@H]1CC[C@H](COc2nn3c(C4CCOCC4)ncc3c(=O)n2C)CC1 [Example 246, 2-[(trans-4-ethoxycyclohexyl)methoxy]-3-methyl-7-(tetrahydro-2H-pyran-4-yl)imidazo[5,1-][1,2,4]triazin-4(3H)-one]
< 1		< 1		< 1			14.3	CCOC[C@H]1CC[C@H](Oc2nn3c(C4CCOCC4)ncc3c(=O)n2C)CC1 [Example 256, 2-{[trans-4-(ethoxymethyl)cyclohexyl]oxy}-3-methyl-7-(tetrahydro-2H-pyran-4-yl)-imidazo-[5,1-][1,2,4]triazin-4(3H)-one]
< 1	0.194	< 1	0.042	< 1	0.027			CCn1c(O[C@H]2CC[C@H](COC)CC2)nn2c(C3CCOCC3)ncc2c1=O [Example 317, 3-ethyl-2-{[trans-4-(methoxymethyl)cyclohexyl]oxy}-7-(tetrahydro-2H-pyran-4-yl)-imidazo[5,1-][1,2,4]triazin-4(3H)-one]
